Structures are written as SMILES. Like-named read-outs stand apart in the source and are kept apart here.

Consider 16 molecules from publication PMC3196794 (Chemical research in toxicology, 2011).

The target in data set [1] is T1, hSULT2A1 (Homo sapiens, UniProt Q06520).
T1 sequence (Q06520 1-285): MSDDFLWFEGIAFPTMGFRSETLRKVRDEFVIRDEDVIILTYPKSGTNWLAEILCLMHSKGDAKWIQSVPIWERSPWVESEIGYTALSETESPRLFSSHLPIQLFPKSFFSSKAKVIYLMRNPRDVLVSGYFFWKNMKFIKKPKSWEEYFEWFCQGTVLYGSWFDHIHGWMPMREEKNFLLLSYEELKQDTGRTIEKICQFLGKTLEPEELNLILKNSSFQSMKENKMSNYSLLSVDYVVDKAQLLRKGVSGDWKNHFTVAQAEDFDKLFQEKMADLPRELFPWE
The data set can be described thus: CoMFA 3D-QSAR model for inhibition of hSULT2A1 by OHPCBs. Particulars: for Difference between the experimental and the predicted values for pIC50: CoMFA Model 1.

In data set [2] the target is T1, hSULT2A1. The data set can be described thus: Inhibition of the sulfation of DHEA catalyzed by hSULT2A1. Format: biochemical.
In data set [3] the target is T1, hSULT2A1. Put plainly: OHPCBs as substrates for hSULT2A1. Format: biochemical. Particulars: 200 μM PAPS; fit to substrate inhibition equation.
The conditions of data set [4]: pH 7.
The target of data set [5] is T1, hSULT2A1. Particulars: 200 μM PAPS; cited from earlier work.
Where [6] appears, read: IC50 (inhibition of the sulfation of DHEA catalyzed by hSULT2A1), 1 μM [3H]DHEA, 200 μM PAPS, pH 7.0, 37°C, 10 min, mean ± standard error of the fit.
Setting [7] is: Actual pIC50, -log IC50 (M), Table 3.

One may read the IC50 as the midpoint of a concentration-inhibition curve. With `Oc1ccc(-c2ccc(Cl)cc2)cc1O` [3′,4′-diOHPCB 3, 3′, 4′-dihydroxy-4-monochlorobiphenyl], the “Difference between the experimental and the predicted values for pIC50” value at hSULT2A1 [1] is listed as 0.072. Also, the IC50 on hSULT2A1 [2] (IC50 (experimental, Table 3), experimental values used for CoMFA Model 1) stood at 9.57e-05 M; on hSULT2A1 [2] (setting [6]), 9.6e-05 ± 1.2e-06 M.
Take `Oc1ccc(-c2cccc(Cl)c2Cl)cc1O` [3′,4′-diOHPCB 5, 3′, 4′-dihydroxy-2,3-dichlorobiphenyl]: the “Difference between the experimental and the predicted values for pIC50” value at hSULT2A1 [1] is on record as 0.054. For the same molecule, the IC50 at hSULT2A1 [2] (setting [7]) is 1.59e-05 M; on hSULT2A1 [2] (setting [6]) it was 1.6e-05 ± 1.1e-06 M.
On to `Oc1ccc(-c2ccc(Cl)cc2)c(Cl)c1` [4-OHPCB 8, 4-hydroxy-2, 4′-dichlorobiphenyl], for which the “Kis (substrate inhibition constant)” value at hSULT2A1 [3] worked out at 65.4 ± 73.8 µM. The “Difference between the experimental and the predicted values for pIC50” value on hSULT2A1 [1] is listed as 0.303. For the same molecule, the IC50 against hSULT2A1 [2] (setting [7]) was 1e-05 M; against hSULT2A1 [2] (setting [6]), 1e-05 ± 1.2e-06 M.
In the case of `Oc1ccc(-c2cccc(Cl)c2)cc1Cl` [4-OHPCB 11, 4-hydroxy-3, 3′-dichlorobiphenyl], the “Kis (substrate inhibition constant)” value at hSULT2A1 [3] was found to be 51.9 ± 65.7 µM. Further, the “Difference between the experimental and the predicted values for pIC50” value on hSULT2A1 [1] is given as 0.011. Also, the IC50 was 1.4e-05 M against hSULT2A1 [2] (setting [7]) and 1.4e-05 ± 1.2e-06 M at hSULT2A1 [2] (setting [6]).
`Oc1c(Cl)cc(-c2ccccc2)cc1Cl` [4-OHPCB 14, 4-hydroxy-3,5-dichlorobiphenyl]: at hSULT2A1 [3], the “Kis (substrate inhibition constant)” value worked out at 220 ± 56 µM. Moreover, the “Difference between the experimental and the predicted values for pIC50” value at hSULT2A1 [1] is on record as 0.196. Moreover, the “fold difference between the predicted and the actual IC50 values” at hSULT2A1 [1] (CoMFA Model 2) is 3.8 fold. Moreover, the IC50 against hSULT2A1 [2] (Actual IC50, Table 4) was 1.3e-05 M; on hSULT2A1 [2] (setting [7]) it was 1.3e-05 M; against hSULT2A1 [2] (setting [6]), 1.3e-05 ± 1.1e-06 M.
Take `Oc1c(Cl)cc(-c2ccccc2Cl)cc1Cl` [4-OHPCB 34, 4-hydroxy-2′, 3,5-trichlorobiphenyl]: the “Kis (substrate inhibition constant)” value at hSULT2A1 [3] amounted to 47.4 ± 16.2 µM. Also, the “Difference between the experimental and the predicted values for pIC50” value on hSULT2A1 [1] is given as 0.199. This molecule gave an IC50 against hSULT2A1 [2] (setting [7]) of 6e-07 M. In addition, the “fold decrease in IC50 compared with 4-OHPCB 36” value on hSULT2A1 [2] (chlorine in the non-phenolic ring changed from meta to ortho) is on record as “approximately 7 fold”.
Take `Oc1c(Cl)cc(-c2cccc(Cl)c2)cc1Cl` [4-OHPCB 36, 4-hydroxy-3, 3′, 5-trichlorobiphenyl]: the “Kis (substrate inhibition constant)” value on hSULT2A1 [3] was found to be 39.4 ± 23.1 µM. At hSULT2A1 [1], the “Difference between the experimental and the predicted values for pIC50” value was 0.088. Besides, the results for the IC50 on hSULT2A1 [2] (setting [7]) and on hSULT2A1 [2] (setting [6]) were 4.4e-06 M and 4.4e-06 ± 1.2e-06 M, respectively.
In the case of `Oc1ccc(-c2ccc(Cl)cc2)cc1` [4′-OHPCB 3, 4′-hydroxy-4-monochlorobiphenyl], the “Difference between the experimental and the predicted values for pIC50” value on hSULT2A1 [1] was 0.026. Moreover, the IC50 on hSULT2A1 [2] (setting [7]) is 2.81e-05 M; on hSULT2A1 [2] (setting [6]), 2.8e-05 ± 1.1e-06 M.
Taken in the same sequence, the figures for `Oc1ccc(-c2ccccc2Cl)cc1Cl` [4′-OHPCB 6, 4′-hydroxy-2, 3′-dichlorobiphenyl] were 0.108, 9.79e-06 M and 9.8e-06 ± 1.1e-06 M.
`Oc1ccc(-c2cc(Cl)ccc2Cl)cc1` [4′-OHPCB 9, 4′-hydroxy-2,5-dichlorobiphenyl]: the “Difference between the experimental and the predicted values for pIC50” value on hSULT2A1 [1] is on record as 0.011. The IC50 on hSULT2A1 [2] (setting [7]) is 7.5e-06 M; against hSULT2A1 [2] (setting [6]), 7.5e-06 ± 1.1e-06 M.
Take `Oc1ccc(-c2ccc(Cl)c(Cl)c2)cc1` [4′-OHPCB 12, 4′-hydroxy-3,4-dichlorobiphenyl]: the “Difference between the experimental and the predicted values for pIC50” value at hSULT2A1 [1] was 0.039. In addition, the IC50 was 1.58e-05 M against hSULT2A1 [2] (Actual IC50, Table 4); 1.58e-05 M at hSULT2A1 [2] (setting [7]); 1.6e-05 ± 1.1e-06 M against hSULT2A1 [2] (setting [6]).
Turning to `Oc1ccc(-c2ccc(Cl)cc2Cl)cc1Cl` [4′-OHPCB 25, 4′-hydroxy-2, 3′, 4-trichlorobiphenyl], the solubility entry in data set [4] is “low solubility”. For the same molecule, at hSULT2A1 [1], the “Difference between the experimental and the predicted values for pIC50” value was 0.084. Further, the IC50 at hSULT2A1 [2] (Actual IC50, Table 4) was 4.4e-06 M; against hSULT2A1 [2] (setting [7]), 4.4e-06 M; against hSULT2A1 [2] (setting [6]) it was 4.4e-06 ± 1.3e-06 M.
With `Oc1ccc(-c2ccc(Cl)c(Cl)c2)c(Cl)c1` [4′-OHPCB 33, 4′-hydroxy-2′, 3,4-trichlorobiphenyl], the “Kis (substrate inhibition constant)” value on hSULT2A1 [3] came to 217 ± 189 µM. Further, the “Difference between the experimental and the predicted values for pIC50” value on hSULT2A1 [1] is 0.099. Moreover, the IC50 on hSULT2A1 [2] (setting [7]) is 2.5e-06 M; against hSULT2A1 [2] (setting [6]), 2.5e-06 ± 1.1e-06 M.
Consider `Oc1c(Cl)cc(-c2ccc(Cl)cc2Cl)cc1Cl` [4′-OHPCB 68, 4′-hydroxy-2, 3′, 4, 5′-tetrachlorobiphenyl], for which the “Difference between the experimental and the predicted values for pIC50” value on hSULT2A1 [1] is 0.056. At hSULT2A1 [2] (setting [7]), the IC50 is 8e-07 M.
As for `Oc1ccc(Cl)cc1-c1ccc(Cl)c(Cl)c1` [6′-OHPCB 35, 6′-hydroxy-3, 3′-4 trichlorobiphenyl], the “Difference between the experimental and the predicted values for pIC50” value at hSULT2A1 [1] is listed as 0.088. Moreover, the “Actual pIC50” value at hSULT2A1 [2] (-log IC50 (M), Table 3) came to 4.810. On hSULT2A1 [2] (read-out: IC50 (inhibition of the sulfation of DHEA catalyzed by hSULT2A1), 1 μM [3H]DHEA, 200 μM PAPS, pH 7.0, 37°C, 10 min, mean ± standard error of the fit), the IC50 is 1.6e-05 ± 1.1e-06 M.
Regarding `C[C@]12CC[C@H](O)CC1=CC[C@@H]1[C@@H]2CC[C@]2(C)C(=O)CC[C@@H]12` [DHEA, dehydroepiandrosterone], at hSULT2A1 [5], the “Kis with DHEA as substrate” value is 8 ± 3 µM and the “Vmax with DHEA as substrate” value is 245 ± 40 nmol/min/mg.
